Results from patent US20120064008A1, “COMPOSITIONS FOR THE TREATMENT OF METASTATIC CANCER AND METHODS OF USE THEREOF” (priority 2009, published 2012).
Read-outs that look alike come from different tables or passages of the source.

What was measured:
[1] = tested on: MES-SA human uterine sarcoma cells; assay: Cell viability, MES-SA; format: cell-based; conditions: read-out: ED50 MES-SA
From the text: (§1) Benzimidazoles retain their anti-tumor activity in these paclitaxel-resistant cells, with higher potency when compared to the parental cells (see Table 4). Cells resistant to microtubule-stabilizing drugs such as the taxanes are more susceptible to microtubule-disrupting agents. To confirm this, human uterine sarcoma MES-SA/Dx5 cells, which are cross-resistant to various chemotherapeutic agents, including the microtubule-disrupting agents vincristine and colchicine, were used.

[2] = tested on: PC3 human prostate cancer cells; assay: Cyquant cell viability assay, PC3; format: cell-based; conditions: read-out: ED50 PC3
Procedure: (§2) The cytotoxic effects of paclitaxel, fenbendazole, and albendazole were compared in paclitaxel-resistant PC3-TR and DU145-TR prostate cancer cells with their paclitaxel-sensitive counterparts, PC3 and DU145 cells. Cells were treated for 72 hours with vehicle, paclitaxel, fenbendazole or albendazole in various doses. Cell viability was measured using Cyquant assay, and percent control was calculated by dividing the fluorescent reading from drug-treated cells with those from vehicle-treated cells, indicating percentage of cell survival.

[3] = tested on: DU145 cells; assay: % apoptotic cells, DU145; format: cell-based, human; conditions: 1 μM
[4] = tested on: DU145-TR cells; assay: % apoptotic cells, DU145-TR; format: cell-based, human; conditions: 1 μM
[5] = Combination with paclitaxel, Cyquant cell growth inhibition, CompuSyn median-dose effect analysis; format: cell-based; conditions: alone or in combination
Procedure: Cell growth inhibition assays were performed using Cyquant reagent as described above. Drug interactions were quantitated by median-dose effect analysis and combination index values as well as dose reduction index were derived using CompuSyn software (ComboSyn, Inc.), as described previously in the literature. CI values of <1, =1, and >1 indicate synergism, additivity and antagonism between the drugs, respectively.
All benzimidazole drugs were prepared using the combination carrier and diluted with culture medium prior to treatment.

[6] = tested on: PC3M cells; assay: Annexin V/7-AAD apoptosis by flow cytometry, PC3M; format: cell-based, human; conditions: 1 μM, 72 hours, combination carrier
Procedure: All benzimidazole drugs were solubilized in the combination carrier. After 72 hours, the cells were analyzed by annexin V/7-AAD staining.
Annexin V/7-amino-actinomycin D labeling was done according to the manufacturer's instructions (BD Pharmingen, 559763) and samples were analyzed by flow cytometry. Briefly, the cells were treated for 72 hours with either vehicle or 1 μM benzimidazole drugs, solubilized in the combination carrier. Cells were trypsinized and washed with PBS before resuspending in assay binding buffer. Annexin V and 7-amino-actinomycin labeling was performed at room temperature for 15 minutes before analysis by flow cytometry (BD FACScan). Cells positively stained for annexin V in the lower right quadrant and upper right quadrant indicate early and late apoptosis, respectively.

[7] = tested on: DU145 cells; assay: Normalized mitotic index, DU145; format: cell-based, human; conditions: 1 μM
[8] = tested on: DU145-TR cells; assay: Normalized mitotic index, DU145-TR; format: cell-based, human; conditions: 1 μM
[9] = tested on: AT6.1 Dunning rat prostate carcinoma; assay: Tumor burden by blood Gaussia luciferase assay in AT6.1 model; format: in vivo, nu/nu mice; conditions: 100 mg/kg; until day 22; FIG. 9
From the text: Similar to the survival model, treatment was not begun until day 5 when micrometastases were confirmed growing in the lung. For this approach, the AT6.1 cells were engineered to express secreted Gaussia luciferase enzyme. Using measurement of luciferase activity from the peripheral blood as an indicator of overall tumor burden, a significant reduction of tumor burden in the lungs of benzimidazole-treated animals when compared to vehicle-treated mice was observed. After 22 days, the mice were sacrificed and the lungs examined for viable tumor colonies.
Blood Gaussia luciferase assay was performed as described in the literature. Briefly, 10-20 μL peripheral blood was collected from the animals once a week via the retro-orbital vein. Secreted GAR luciferase activity was measured using a luminometer by adding 100 μL of 100 μM coelentrazine (Prolume, Nanolight, #303) to 5 μL blood and 2 μL of 20 mM EDTA. Relative luciferase reading from the blood collected represents the tumor burden in each animal. The reading was performed with blood collected at day 19 post inoculation when all mice were still alive.

[10] = tested on: PC-3M cells; assay: Normalized mitotic index (histone H3 phospho-Serine-28), PC-3M; format: cell-based; conditions: Homo sapiens
From the text: (§3) The mitotic index for each agent was normalized against those obtained from vehicle-treated cells, and compared with the activity of paclitaxel, a known inducer of mitotic arrest.

[11] = tested on: paclitaxel-resistant PC3-TR prostate cancer cells; assay: Cyquant cell viability assay, PC3-TR; format: cell-based, human; conditions: Homo sapiens, read-out: ED50 PC3-TR
Procedure: as §2

[12] = tested on: PC3 cells; assay: Normalized mitotic index, PC3; format: cell-based, human; conditions: 1 μM
[13] = tested on: paclitaxel-resistant DU145-TR prostate cancer cells; assay: Cyquant cell viability assay, DU145-TR; format: cell-based, human; conditions: Homo sapiens, read-out: ED50 DU145-TR
Procedure: as §2

[14] = tested on: PC3 cells; assay: % apoptotic cells, PC3; format: cell-based, human; conditions: 1 μM
[15] = tested on: multidrug resistant MES-SA/Dx5 human uterine sarcoma cells; assay: Cell viability, MES-SA/Dx5; format: cell-based; conditions: read-out: ED50 MES-SA/Dx5
From the text: as §1

[16] = tested on: PC3MLN4 human prostate cancer cells; assay: Cyquant cell viability assay, PC3MLN4; conditions: for EC50: Homo sapiens, 72 h, read-out: ED50 PC3MLN4 DMSO
Procedure: PC3M and PC3MLN4 cells were treated with vehicle, fenbendazole in DMSO, and fenbendazole in DMSO/NMP/TWEEN®-80/CrEL in varying doses for 72 hours. Cell viability assays using Cyquant reagent (Invitrogen, C7026) were performed as described in the literature. […] cells were seeded in 96 well plates overnight, before treated with either vehicle or benzimidazole solubilized in DMSO alone or in DMSO (12.5%)/NMP ([…])/TWEEN®-80 (25%)/Cr-EL (25%) for 72 hours. Cells were harvested by removing the media, washing once with phosphate buffered saline (PBS) and freezing at −80° C. for overnight. After thawing to room temperature, Cyquant reagent were prepared and added to the wells and the fluorescence intensity were measured with a spectrometer at 485 nm. Percent control was calculated by dividing the reading from drug-treated cells with the reading from vehicle-treated cells.
ED50 values were calculated from dose-effect analysis performed with Compusyn using data from the Cyquant cell viability assays.
ED50 values were calculated from dose-effect analysis performed with Compusyn using data from the Cyquant cell viability assays. All benzimidazoles drugs were solubilized in the combination carrier.

[17] = tested on: AT6.1 cells; assay: Normalized mitotic index (histone H3 phospho-Serine-28), AT6.1; format: cell-based; conditions: Rattus norvegicus, normalized against vehicle-treated cells
From the text: as §3

[18] = tested on: PC3-TR cells; assay: Normalized mitotic index, PC3-TR; format: cell-based, human; conditions: 1 μM

## CCCSc1ccc2nc(NC(=O)OC)[nH]c2c1 [Albendazole, albendazole]
[1]
  EC50: 1480 nM
[2]; 72 h
  EC50: 4860 nM
[3]
  % Apoptotic cells (72 hours) DU145: 27%
[4]
  % Apoptotic cells (72 hours) DU145-TR: 55.8%
[5]; Fa 0.60
  Dose ABZ: 5.249 µM
[6]
  apoptotic cells in PC3M: 22%
[7]
  Normalized mitotic index (6 hours) DU145: 1.93
[8]
  Normalized mitotic index (6 hours) DU145-TR: 1.13
[9]
  tumor burden compared to the control: significant reduction in tumor burden
[10]; read-out: Normalized mitotic index PC-3M, at 1 μM, normalized against vehicle-treated cells
  fold induction at 1 µM: > 1
[11]; 72 h
  EC50: 800 nM
[12]
  Normalized mitotic index (6 hours) PC3: 1.27
[13]; 72 h
  EC50: 1080 nM
[14]
  % Apoptotic cells (72 hours) PC3: 13.2%
[15]
  EC50: 840 nM
[16]
  EC50: 4680 nM
[16]; PC3MLN4 cells, 72 hours
  cytotoxicity in the combination carrier compared to DMSO alone: greater cytotoxicity
[16]; PC-3MLN4 (b184 also AT6.1) relative to PC-3M
  cytotoxicity in highly metastatic cells relative to PC-3M: greater cytotoxicity
[17]; read-out: Normalized mitotic index AT6.1, at 1 μM
  fold induction at 1 µM: > 1
[18]
  Normalized mitotic index (6 hours) PC3-TR: 1.56

## COC(=O)Nc1nc2ccc(Sc3ccccc3)cc2[nH]1 [Fenbendazole, fenbendazole]
[1]
  EC50: 3040 nM
[2]; 72 hours
  EC50: 1570 nM
[3]
  % Apoptotic cells (72 hours) DU145: 26%
[4]
  % Apoptotic cells (72 hours) DU145-TR: 43.3%
[5]; Fa 0.50, read-out: Dose FBZ
  EC50: 6210 nM
[6]
  apoptotic cells in PC3M: 22.8%
[7]
  Normalized mitotic index (6 hours) DU145: 1.47
[8]
  Normalized mitotic index (6 hours) DU145-TR: 1.18
[9]
  tumor burden compared to the control: significant reduction in tumor burden
[10]; at 1 μM, normalized against vehicle-treated cells, read-out: Normalized mitotic index PC-3M
  fold induction at 1 µM: > 1
[11]; 72 hours, paclitaxel-resistant
  EC50: 320 nM
[12]
  Normalized mitotic index (6 hours) PC3: 1.26
[13]; 72 hours, paclitaxel-resistant
  EC50: 4210 nM
[14]
  % Apoptotic cells (72 hours) PC3: 16.1%
[15]
  EC50: 1130 nM
[16]
  cytotoxicity in the combination carrier compared to DMSO alone: greater cytotoxicity
  EC50: 1930 nM
[16]; solubilized in DNTC vs DMSO
  reduction in ED50, DNTC compared to DMSO, PC-3MLN4: ~2 fold
[17]; at 1 μM, read-out: Normalized mitotic index AT6.1
  fold induction at 1 µM: > 1
[18]
  Normalized mitotic index (6 hours) PC3-TR: 1.48
